Biological target: T1, histone H1
T1 construct: Recombinant histone H1 immobilized on CM5 chip
Assay: SPR (Biacore 8K, […] Langmuir fit); supported by in vitro co-condensation with H1-CFP
Format: binding

COc1cccc2c1C(=O)c1c(O)c3c(c(O)c1C2=O)C[C@@](O)(C(=O)CO)C[C@@H]3O[C@H]1C[C@H](N)[C@H](O)[C@H](C)O1 [adriamycin]
Kd: 1970 nM
